System: 883617-216-R-J1-PDC tumor spheroids, viability
Assay: Anticancer human tumor 883617-216-R-J1-PDC patient-derived bladder carcinoma cell line growth inhibition [PI3K]
Conditions: spheroids with HUVEC and MSC; for IC50: curve of first compound; for viability, T/C: stronger effect = lower value; active means viability on the fitted dose curve at most 10% of control; inactive means the rest
Source text: Combinatorial screen of targeted agents with the PI3K inhibitors inavolisib, alpelisib, duvelisib, and copanlisib in multi-cell type tumor spheroids
A high-throughput screen of multi-cell type tumor spheroids was designed to identify active combinations of targeted small molecules and PI3K pathway inhibitors. Complex spheroids include a stromal component modeled by human endothelial cells (HUVEC) and fibroblasts modeled by human mesenchymal stem cells (MSCs). The concentration ranges selected for each drug and investigational agent were based upon clinically achievable concentrations if the clinical Cmax of the agent was known.
Compounds. The drugs and investigational agents: inavolisib (NSC800729), alpelisib (NSC765974), duvelisib (NSC772469), copanlisib (NSC816437), ipatasertib (NSC767898), afuresertib (NSC778305), talazoparib (NSC767125), sapanisertib (NSC764658), selumetinib (NSC741078), tovorafenib (DAY101, NSC766906), vemurafenib (NSC761431), ravoxertinib (NSC781343), sotorasib (NSC818433), MRTX1133 (NSC 836407), abemaciclib (NSC 768073), palbociclib (NSC758247), venetoclax (NSC 766270), SY5609 (NSC837396), enzalutamide (NSC755605), and darolutamide (NSC825331), were obtained from the National Cancer Institute (NCI) Developmental Therapeutics Program Chemical Repository. The FDA-approved anticancer drug set is available from the NCI Developmental Therapeutics Program. […] The stock solutions were prepared in dimethyl sulfoxide (DMSO, Sigma-Aldrich, St. Louis, MO, cat. D2650) at 800-fold the tested concentration and stored at -70 degrees C prior to their use. All drugs and investigational agents were tested over a range starting from a high concentration at or near the clinical Cmax and decreasing in half-log increments. If the clinical Cmax for an agent had not been determined, the highest concentration tested was 10 microM.
Cell Culture. All cells were maintained in an incubator at 37 degrees C and 5% CO2 with 95% humidity. The PDC lines were cultured according to standard operating procedures established by the NCI PDMR (https://pdmr.cancer.gov/sops/default.htm). All PDCs were thawed and cultured in Matrigel-coated flasks prepared with a working solution of 1X Ham's F-12 nutrient mix, without supplementation (Invitrogen, Waltham, MA, cat. 11765054), 100 U/mL penicillin-streptomycin (Invitrogen, cat. 15140122), and 2.5% Matrigel (Corning Inc., Corning, NY, cat. 354248) for the first three passages. The 354836-022-R-J1-PDC, 475296-252-R-J1-PDC, and 997726-040-R-J2-PDC lines were cultured in 6A media, which includes advanced DMEM/F-12 (Thermo Fisher Scientific, cat. 12634028), 10 mM HEPES (Thermo Fisher Scientific, cat. 15630080), 1X GlutaMAX supplement (Thermo Fisher Scientific, cat. 35050061), 0.1 mg/mL primocin (InvivoGen, San Diego, CA, cat. ant-pm-2), 10% defined fetal bovine serum, heat inactivated (HyClone Laboratories Inc., Logan, UT, cat. SH30070.03HI), 50% L-WRN conditioned media (ATCC, cat. CRL-3276), 1.25 mM N-Acetyl-L-cysteine (Sigma-Aldrich, cat. A9165), 10 mM nicotinamide (Sigma-Aldrich, cat. N0636), 1X B-27 supplement (Thermo Fisher Scientific, cat. 17504044), 1X N-2 supplement (Thermo Fisher Scientific, cat. 17502048), and 10 microM Y-27632 dihydrochloride (Tocris Bioscience, Bristol, United Kingdom, cat. 1254). The 624824-186-R-J2-PDC line was cultured in 6C/Colon 1B media, which includes all 6A media components plus 50 ng/mL human EGF recombinant protein (Thermo Fisher Scientific, cat. PHG0311). […]

[1] = second compound 0.00316 µM, first compound 0.0316 µM
[2] = second compound 0.00316 µM, first compound 0.1 µM
[3] = second compound 0.00316 µM, first compound 0.316 µM
[4] = second compound 0.00316 µM, first compound 1 µM
[5] = second compound 0.00316 µM, first compound 3.16 µM
[6] = second compound 0.00316 µM, first compound 10 µM
[7] = second compound 0.01 µM, first compound 0.0316 µM
[8] = second compound 0.01 µM, first compound 0.1 µM
[9] = second compound 0.01 µM, first compound 0.316 µM
[10] = second compound 0.01 µM, first compound 1 µM
[11] = second compound 0.01 µM, first compound 3.16 µM
[12] = second compound 0.01 µM, first compound 10 µM
[13] = second compound 0.0316 µM, first compound 0.0316 µM
[14] = second compound 0.0316 µM, first compound 0.1 µM
[15] = second compound 0.0316 µM, first compound 0.316 µM
[16] = second compound 0.0316 µM, first compound 1 µM
[17] = second compound 0.0316 µM, first compound 3.16 µM
[18] = second compound 0.0316 µM, first compound 10 µM
[19] = second compound 0.1 µM, first compound 0.0316 µM
[20] = second compound 0.1 µM, first compound 0.1 µM
[21] = second compound 0.1 µM, first compound 0.316 µM
[22] = second compound 0.1 µM, first compound 1 µM
[23] = second compound 0.1 µM, first compound 3.16 µM
[24] = second compound 0.1 µM, first compound 10 µM
[25] = second compound 0.316 µM, first compound 0.0316 µM
[26] = second compound 0.316 µM, first compound 0.1 µM
[27] = second compound 0.316 µM, first compound 0.316 µM
[28] = second compound 0.316 µM, first compound 1 µM
[29] = second compound 0.316 µM, first compound 3.16 µM
[30] = second compound 0.316 µM, first compound 10 µM
[31] = second compound 1 µM, first compound 0.0316 µM
[32] = second compound 1 µM, first compound 0.1 µM
[33] = second compound 1 µM, first compound 0.316 µM
[34] = second compound 1 µM, first compound 1 µM
[35] = second compound 1 µM, first compound 3.16 µM
[36] = second compound 1 µM, first compound 10 µM
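Further: spheroids exposed to agents for 7 days before the viability read.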

CC(C)NCC(C(=O)N1CCN(c2ncnc3c2C(C)CC3O)CC1)c1ccc(Cl)cc1 (centres undefined) + COc1c(OCCCN2CCOCC2)ccc2c3n(c(=NC(=O)c4cnc(N)nc4)nc12)CCN3
< 31.6 nM: IC50 (second compound 0.0316 µM) | IC50 (second compound 0.1 µM) | IC50 (second compound 0.316 µM) | IC50 (second compound 1 µM)
active: viability, T/C [6] 7.44% | viability, T/C [12] 6.61% | viability, T/C [18] 4.74% | viability, T/C [22] 9.69% | viability, T/C [23] 5.3% | viability, T/C [24] 3.5% | viability, T/C [25] 5.34% | viability, T/C [26] 5.49% | viability, T/C [27] 4.1% | viability, T/C [28] 4.13% | viability, T/C [29] 3.12% | viability, T/C [30] 2.45% | viability, T/C [31] 2.86% | viability, T/C [32] 3.36% | viability, T/C [33] 3.4% | viability, T/C [34] 2.86% | viability, T/C [35] 3.11% | viability, T/C [36] 1.47%
167 nM: IC50 (second compound 0.01 µM)
475 nM: IC50 (second compound 0.00316 µM)
inactive: viability, T/C [1] 89.7% | viability, T/C [2] 67.4% | viability, T/C [3] 59.5% | viability, T/C [4] 41.5% | viability, T/C [5] 18.4% | viability, T/C [7] 63.5% | viability, T/C [8] 53.7% | viability, T/C [9] 45.7% | viability, T/C [10] 26.7% | viability, T/C [11] 17.2% | viability, T/C [13] 44.2% | viability, T/C [14] 37.1% | viability, T/C [15] 26.4% | viability, T/C [16] 27.7% | viability, T/C [17] 8.87% | viability, T/C [19] 22% | viability, T/C [20] 15% | viability, T/C [21] 12.2%

CC(Cn1ccc(-c2ccc(C#N)c(Cl)c2)n1)NC(=O)c1cc(C(C)O)[nH]n1 (centres undefined) + COc1c(OCCCN2CCOCC2)ccc2c3n(c(=NC(=O)c4cnc(N)nc4)nc12)CCN3
active: viability, T/C [25] 5.01% | viability, T/C [26] 4.53% | viability, T/C [27] 4.26% | viability, T/C [28] 4.08% | viability, T/C [29] 5.69% | viability, T/C [30] 4.16% | viability, T/C [31] 3.17% | viability, T/C [32] 2.54% | viability, T/C [33] 3.2% | viability, T/C [34] 3.42% | viability, T/C [35] 4.42% | viability, T/C [36] 4.01%
inactive: viability, T/C [1] 74.1% | viability, T/C [2] 75.2% | viability, T/C [3] 83.8% | viability, T/C [4] 96.2% | viability, T/C [5] 83.8% | viability, T/C [6] 79.3% | viability, T/C [7] 68.8% | viability, T/C [8] 70.4% | viability, T/C [9] 70.3% | viability, T/C [10] 65.6% | viability, T/C [11] 65.7% | viability, T/C [12] 64.2% | viability, T/C [13] 31.1% | viability, T/C [14] 33% | viability, T/C [15] 37.3% | viability, T/C [16] 29.4% | viability, T/C [17] 35.7% | viability, T/C [18] 30.2% | viability, T/C [19] 14.9% | viability, T/C [20] 11% | viability, T/C [21] 14.6% | viability, T/C [22] 19% | viability, T/C [23] 13.3% | viability, T/C [24] 11.6%
> 10000 nM: IC50 (second compound 0.00316 µM) | IC50 (second compound 0.01 µM)
< 31.6 nM: IC50 (second compound 0.0316 µM) | IC50 (second compound 0.1 µM) | IC50 (second compound 0.316 µM) | IC50 (second compound 1 µM)

Reference: PubChem BioAssay AID1963973 (Molecular Pharmacology Branch, DTP, NCI, 2024)
